“And” between values parts separate entries of the source, which are not always exact repeats. Equal values may be shown once. Read-outs that look alike come from different tables or passages of the source.
How the values were obtained:
CDC1551(ΔdosR) mutant = type: cell-based; conditions: for Counts per million (CPM) DosR_HC103A1 / Counts per million (CPM) DosR_HC103A2 / Counts per million (CPM): DosR mutant treated with HC103A; for Counts per million (CPM) DosR_HC103A1: replicate 1; for Counts per million (CPM) DosR_HC103A2: replicate 2; for DosR DMSO/DosR HC103A Fold change / log2 Fold change: DosR mutant; for Counts per million (CPM): replicates 1, 2
DosRST regulon = type: cell-based; conditions: 40 μM, 6 days, >2-fold, p<0.05
[1] = gene MT1608 (Rv1557, mmpL6), HC103A compared to DMSO, upregulated
[2] = gene MT1690 Rv1652 argC, HC103A vs DMSO
[3] = gene MT1692 Rv1654 argB, HC103A vs DMSO
[4] = gene MT1694 Rv1656 argF, HC103A vs DMSO
[5] = gene MT2466, HC103A compared to DMSO, upregulated
[6] = gene MT2467, HC103A compared to DMSO, upregulated
[7] = gene MT3110 (Rv3026c), HC103A compared to DMSO, upregulated
[8] = gene MT3134 Rv3049c, HC103A vs DMSO
[9] = gene MT3249 (Rv3160c), HC103A compared to DMSO, upregulated
[10] = gene MT3250 (Rv3161c), HC103A compared to DMSO, upregulated
[11] = gene MT3591 (Rv3487c, lipF), HC103A compared to DMSO, upregulated
[12] = gene MT3933 (Rv3825c, pks2), HC103A compared to DMSO, upregulated

For `O=C(Nc1cccc(O)c1)c1cccc(NC(=O)c2cccs2)c1` [HC103A, N-[3-[(3 hydroxyphenyl)carbamoyl]phenyl]thiophene-2-carboxamide], the “Counts per million (CPM) DosR_HC103A1” value (CDC1551(ΔdosR) mutant; gene MT1608 (Rv1557, mmpL6)) was 351.7 CPM, the “Counts per million (CPM) DosR_HC103A2” value (CDC1551(ΔdosR) mutant; gene MT1608 (Rv1557, mmpL6)) was 540 CPM and the “DosR DMSO/DosR HC103A Fold change” value (CDC1551(ΔdosR) mutant; [1]) was 6.869. The “log2 Fold change” value (CDC1551(ΔdosR) mutant; [1]) was 2.78, the “Counts per million (CPM)” value (CDC1551(ΔdosR) mutant; gene MT1690 Rv1652 argC) was 130.6 CPM and 56.84 CPM and the “DosR DMSO/DosR HC103A Fold change” value (CDC1551(ΔdosR) mutant; [2]) was 0.4979. The “log2 Fold change” value (CDC1551(ΔdosR) mutant; [2]) was −1.006, the “Counts per million (CPM)” value (CDC1551(ΔdosR) mutant; gene MT1691) was 81.47 CPM and 33.33 CPM and the “DosR DMSO/DosR HC103A Fold change” value (CDC1551(ΔdosR) mutant; gene MT1691, HC103A vs DMSO) was 0.4846. For the same compound, the “log2 Fold change” value (CDC1551(ΔdosR) mutant; gene MT1691, HC103A vs DMSO) was −1.045, the “Counts per million (CPM)” value (CDC1551(ΔdosR) mutant; gene MT1692 Rv1654 argB) was 128.8 CPM and 55.27 CPM and the “DosR DMSO/DosR HC103A Fold change” value (CDC1551(ΔdosR) mutant; [3]) was 0.4965. The “log2 Fold change” value (CDC1551(ΔdosR) mutant; [3]) was −1.01, the “Counts per million (CPM)” value (CDC1551(ΔdosR) mutant; gene MT1694 Rv1656 argF) was 79.75 CPM and 39.53 CPM and the “DosR DMSO/DosR HC103A Fold change” value (CDC1551(ΔdosR) mutant; [4]) was 0.4259. For the same compound, the “log2 Fold change” value (CDC1551(ΔdosR) mutant; [4]) was −1.231, the “Counts per million (CPM) DosR_HC103A1” value (CDC1551(ΔdosR) mutant; gene MT2466) was 356.4 CPM and the “Counts per million (CPM) DosR_HC103A2” value (CDC1551(ΔdosR) mutant; gene MT2466) was 182.6 CPM. The “DosR DMSO/DosR HC103A Fold change” value (CDC1551(ΔdosR) mutant; [5]) was 2.643, the “log2 Fold change” value (CDC1551(ΔdosR) mutant; [5]) was 1.402 and the “Counts per million (CPM) DosR_HC103A1” value (CDC1551(ΔdosR) mutant; gene MT2467) was 57.69 CPM. The “Counts per million (CPM) DosR_HC103A2” value (CDC1551(ΔdosR) mutant; gene MT2467) was 12.39 CPM, the “DosR DMSO/DosR HC103A Fold change” value (CDC1551(ΔdosR) mutant; [6]) was 2.468 and the “log2 Fold change” value (CDC1551(ΔdosR) mutant; [6]) was 1.303. The “Counts per million (CPM) DosR_HC103A1” value (CDC1551(ΔdosR) mutant; gene MT3110 (Rv3026c)) was 44.13 CPM, the “Counts per million (CPM) DosR_HC103A2” value (CDC1551(ΔdosR) mutant; gene MT3110 (Rv3026c)) was 30.13 CPM and the “DosR DMSO/DosR HC103A Fold change” value (CDC1551(ΔdosR) mutant; [7]) was 2.016. The “log2 Fold change” value (CDC1551(ΔdosR) mutant; [7]) was 1.012, the “Counts per million (CPM)” value (CDC1551(ΔdosR) mutant; gene MT3134 Rv3049c) was 1,202.50 CPM and 892.7 CPM and the “DosR DMSO/DosR HC103A Fold change” value (CDC1551(ΔdosR) mutant; [8]) was 0.4226. The “log2 Fold change” value (CDC1551(ΔdosR) mutant; [8]) was −1.243, the “Counts per million (CPM) DosR_HC103A1” value (CDC1551(ΔdosR) mutant; gene MT3249 (Rv3160c)) was 172.6 CPM and the “DosR DMSO/DosR HC103A Fold change” value (CDC1551(ΔdosR) mutant; [9]) was 2.261. The “log2 Fold change” value (CDC1551(ΔdosR) mutant; [9]) was 1.177, the “Counts per million (CPM) DosR_HC103A1” value (CDC1551(ΔdosR) mutant; gene MT3250 (Rv3161c)) was 561.8 CPM and the “Counts per million (CPM) DosR_HC103A2” value (CDC1551(ΔdosR) mutant; gene MT3250 (Rv3161c)) was 555 CPM. For the same compound, the “DosR DMSO/DosR HC103A Fold change” value (CDC1551(ΔdosR) mutant; [10]) was 2.364, the “log2 Fold change” value (CDC1551(ΔdosR) mutant; [10]) was 1.241 and the “Counts per million (CPM)” value (CDC1551(ΔdosR) mutant; gene MT3573.12) was 281 CPM and 281.6 CPM. The “DosR DMSO/DosR HC103A Fold change” value (CDC1551(ΔdosR) mutant; gene MT3573.12, HC103A vs DMSO) was 0.4221, the “log2 Fold change” value (CDC1551(ΔdosR) mutant; gene MT3573.12, HC103A vs DMSO) was −1.244 and the “Counts per million (CPM) DosR_HC103A1” value (CDC1551(ΔdosR) mutant; gene MT3591 (Rv3487c, lipF)) was 185.8 CPM. For the same compound, the “Counts per million (CPM) DosR_HC103A2” value (CDC1551(ΔdosR) mutant; gene MT3591 (Rv3487c, lipF)) was 63.03 CPM, the “DosR DMSO/DosR HC103A Fold change” value (CDC1551(ΔdosR) mutant; [11]) was 2.033 and the “log2 Fold change” value (CDC1551(ΔdosR) mutant; [11]) was 1.023. The “Counts per million (CPM) DosR_HC103A1” value (CDC1551(ΔdosR) mutant; gene MT3933 (Rv3825c, pks2)) was 917.6 CPM, the “Counts per million (CPM) DosR_HC103A2” value (CDC1551(ΔdosR) mutant; gene MT3933 (Rv3825c, pks2)) was 561 CPM and the “DosR DMSO/DosR HC103A Fold change” value (CDC1551(ΔdosR) mutant; [12]) was 2.341. The “log2 Fold change” value (CDC1551(ΔdosR) mutant; [12]) was 1.227 and the “genes downregulated by compound that are also downregulated in the CDC1551(ΔdosR) mutant” value (DosRST regulon) was 76 genes.
